Assay results taken from patent US4056520A (Research Corporation, priority 1975, dated 1977).

System: pituitary dwarf
Assay: Metabolic studies in a pituitary dwarf (human growth hormone-like activity)
Type: in vivo
Conditions: same pituitary dwarf
Description: There was also observed an increase in urinary calcium. […] This fraction in accordance with this invention evidencing clinical activity was administered by injection into the pituitary dwarf.
In the treatment of the pituitary dwarf mentioned hereinabove with the active A-II fraction, the treatment involved metabolic studies. The pituitary dwarf received 5 milligrams of the A-II fraction dissolved in water twice a day intramuscularly for five days. The active A-II fraction could just as well been given intravenously although one would predict that the effects would be more prolonged with intramuscular injection. It would appear unlikely that the A-II fraction, being a peptide, could efficiently be given orally since it would be digested in the gastrointestinal tract.

human growth hormone: human growth hormone given to the same pituitary dwarf for comparison
responses compared with the A-II fraction: qualitatively the same although the human growth hormone was more effective
